Experimental data reported in ChEMBL document CHEMBL4420075, “Seriniquinones, melanoma-specific anticancer agents” (2016).
Activity calls are given as the source filed them. No cut-off for these calls is given here.

Key:
HCT-116 [1] = test: Cytotoxicity in human HCT116 cells by MTT assay; assay type: functional, cell-based
Dermcidin (Homo sapiens) = target: T1, Dermcidin (Homo sapiens) (UniProt P81605); test: Covalent binding affinity to DCD-1L (unknown origin) at 50 uM incubated for 24 hrs by denatured SDS-PAGE gel electrophoresis
T1 sequence (whole entry): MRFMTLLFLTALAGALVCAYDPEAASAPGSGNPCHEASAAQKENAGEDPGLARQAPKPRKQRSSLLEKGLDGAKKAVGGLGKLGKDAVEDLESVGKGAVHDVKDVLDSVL

HT-29 = test: Growth inhibition of human HT-29 cells assessed as cell growth incubated for 48 hrs by sulforhodamine B assay; assay type: functional; set-up: concentration or dose not given beside the values
SF-268 = test: Growth inhibition of human SF268 cells assessed as cell growth incubated for 48 hrs by sulforhodamine B assay; assay type: functional; set-up: concentration or dose not given beside the values
OVCAR-8 = test: Growth inhibition of human OVCAR8 cells assessed as cell growth incubated for 48 hrs by sulforhodamine B assay; assay type: functional; set-up: concentration or dose not given beside the values
RXF 393 = test: Growth inhibition of human RXF393 cells assessed as cell growth incubated for 48 hrs by sulforhodamine B assay; assay type: functional; set-up: concentration or dose not given beside the values
TK-10 = test: Growth inhibition of human TK10 cells assessed as cell growth incubated for 48 hrs by sulforhodamine B assay; assay type: functional; set-up: concentration or dose not given beside the values
OVCAR-3 = test: Growth inhibition of human OVCAR3 cells assessed as cell growth incubated for 48 hrs by sulforhodamine B assay; assay type: functional; set-up: concentration or dose not given beside the values
NCI-H522 = test: Growth inhibition of human NCI-H522 cells assessed as cell growth incubated for 48 hrs by sulforhodamine B assay; assay type: functional; set-up: concentration or dose not given beside the values
ACHN = test: Growth inhibition of human ACHN cells assessed as cell growth incubated for 48 hrs by sulforhodamine B assay; assay type: functional; set-up: scale not given: the % may be the effect or the level left
SF-539 = test: Growth inhibition of human SF539 cells assessed as cell growth incubated for 48 hrs by sulforhodamine B assay; assay type: functional; set-up: scale not given: the % may be the effect or the level left
HOP-92 = test: Growth inhibition of human HOP92 cells assessed as cell growth incubated for 48 hrs by sulforhodamine B assay; assay type: functional; set-up: concentration or dose not given beside the values
OVCAR-4 = test: Growth inhibition of human OVCAR4 cells assessed as cell growth incubated for 48 hrs by sulforhodamine B assay; assay type: functional; set-up: concentration or dose not given beside the values
RPMI-8226 = test: Growth inhibition of human RPMI8226 cells assessed as cell growth incubated for 48 hrs by sulforhodamine B assay; assay type: functional; set-up: concentration or dose not given beside the values
MDA-MB-435 = test: Growth inhibition of human MDA-MB-435 cells assessed as cell growth incubated for 48 hrs by sulforhodamine B assay; assay type: functional; set-up: concentration or dose not given beside the values
HOP-62 = test: Growth inhibition of human HOP62 cells assessed as cell growth incubated for 48 hrs by sulforhodamine B assay; assay type: functional; set-up: concentration or dose not given beside the values
T47D = test: Growth inhibition of human T47D cells assessed as cell growth incubated for 48 hrs by sulforhodamine B assay; assay type: functional; set-up: concentration or dose not given beside the values
MOLT-4 = test: Growth inhibition of human MOLT4 cells assessed as cell growth incubated for 48 hrs by sulforhodamine B assay; assay type: functional; set-up: concentration or dose not given beside the values
MDA-MB-231 = test: Growth inhibition of human MDA-MB-231 cells assessed as cell growth incubated for 48 hrs by sulforhodamine B assay; assay type: functional; set-up: concentration or dose not given beside the values
CCRF-CEM = test: Growth inhibition of human CCRF-CEM cells assessed as cell growth incubated for 48 hrs by sulforhodamine B assay; assay type: functional; set-up: concentration or dose not given beside the values
HL-60(TB) = test: Growth inhibition of human HL-60(TB) cells assessed as cell growth incubated for 48 hrs by sulforhodamine B assay; assay type: functional; set-up: concentration or dose not given beside the values
HCC 2998 = test: Growth inhibition of human HCC2998 cells assessed as cell growth incubated for 48 hrs by sulforhodamine B assay; assay type: functional; set-up: concentration or dose not given beside the values
MDA-MB-468 = test: Growth inhibition of human MDA-MB-468 cells assessed as cell growth incubated for 48 hrs by sulforhodamine B assay; assay type: functional; set-up: concentration or dose not given beside the values
BT-549 = test: Growth inhibition of human BT549 cells assessed as cell growth incubated for 48 hrs by sulforhodamine B assay; assay type: functional; set-up: concentration or dose not given beside the values
Hs-578T = test: Growth inhibition of human Hs 578T cells assessed as cell growth incubated for 48 hrs by sulforhodamine B assay; assay type: functional; set-up: concentration or dose not given beside the values
SR = test: Growth inhibition of human SR cells assessed as cell growth incubated for 48 hrs by sulforhodamine B assay; assay type: functional; set-up: concentration or dose not given beside the values
DU-145 = test: Growth inhibition of human DU145 cells assessed as cell growth incubated for 48 hrs by sulforhodamine B assay; assay type: functional; set-up: concentration or dose not given beside the values
SK-OV-3 = test: Growth inhibition of human SKOV3 cells assessed as cell growth incubated for 48 hrs by sulforhodamine B assay; assay type: functional; set-up: concentration or dose not given beside the values
K562 = test: Growth inhibition of human K562 cells assessed as cell growth incubated for 48 hrs by sulforhodamine B assay; assay type: functional; set-up: concentration or dose not given beside the values
786-0 = test: Growth inhibition of human 786-0 cells assessed as cell growth incubated for 48 hrs by sulforhodamine B assay; assay type: functional; set-up: concentration or dose not given beside the values
MCF7 = test: Growth inhibition of human MCF7 cells assessed as cell growth incubated for 48 hrs by sulforhodamine B assay; assay type: functional; set-up: concentration or dose not given beside the values
SW-620 = test: Growth inhibition of human SW620 cells assessed as cell growth incubated for 48 hrs by sulforhodamine B assay; assay type: functional; set-up: concentration or dose not given beside the values
SK-MEL-28 = test: Growth inhibition of human SK-MEL-28 cells assessed as cell growth incubated for 48 hrs by sulforhodamine B assay; assay type: functional; set-up: concentration or dose not given beside the values
SNB-19 = test: Growth inhibition of human SNB19 cells assessed as cell growth incubated for 48 hrs by sulforhodamine B assay; assay type: functional; set-up: concentration or dose not given beside the values
SK-MEL-5 = test: Growth inhibition of human SK-MEL-5 cells assessed as cell growth incubated for 48 hrs by sulforhodamine B assay; assay type: functional; set-up: concentration or dose not given beside the values
UACC-257 = test: Growth inhibition of human UACC257 cells assessed as cell growth incubated for 48 hrs by sulforhodamine B assay; assay type: functional; set-up: concentration or dose not given beside the values
NCI-H226 = test: Growth inhibition of human NCI-H226 cells assessed as cell growth incubated for 48 hrs by sulforhodamine B assay; assay type: functional; set-up: concentration or dose not given beside the values
U-251 = test: Growth inhibition of human U251 cells assessed as cell growth incubated for 48 hrs by sulforhodamine B assay; assay type: functional; set-up: concentration or dose not given beside the values
A549 = test: Growth inhibition of human A549/ATCC cells assessed as cell growth incubated for 48 hrs by sulforhodamine B assay; assay type: functional; set-up: concentration or dose not given beside the values
KM12 = test: Growth inhibition of human KM12 cells assessed as cell growth incubated for 48 hrs by sulforhodamine B assay; assay type: functional; set-up: concentration or dose not given beside the values
PC-3 = test: Growth inhibition of human PC3 cells assessed as cell growth incubated for 48 hrs by sulforhodamine B assay; assay type: functional; set-up: concentration or dose not given beside the values
SK-MEL-2 = test: Growth inhibition of human SK-MEL-2 cells assessed as cell growth incubated for 48 hrs by sulforhodamine B assay; assay type: functional; set-up: concentration or dose not given beside the values
SN12C = test: Growth inhibition of human SN12C cells assessed as cell growth incubated for 48 hrs by sulforhodamine B assay; assay type: functional; set-up: concentration or dose not given beside the values
SF-295 = test: Growth inhibition of human SF295 cells assessed as cell growth incubated for 48 hrs by sulforhodamine B assay; assay type: functional; set-up: concentration or dose not given beside the values
SNB-75 = test: Growth inhibition of human SNB75 cells assessed as cell growth incubated for 48 hrs by sulforhodamine B assay; assay type: functional; set-up: concentration or dose not given beside the values
OVCAR-5 = test: Growth inhibition of human OVCAR5 cells assessed as cell growth incubated for 48 hrs by sulforhodamine B assay; assay type: functional; set-up: scale not given: the % may be the effect or the level left
NCI-H322M = test: Growth inhibition of human NCI-H322M cells assessed as cell growth incubated for 48 hrs by sulforhodamine B assay; assay type: functional; set-up: scale not given: the % may be the effect or the level left
A498 = test: Growth inhibition of human A498 cells assessed as cell growth incubated for 48 hrs by sulforhodamine B assay; assay type: functional; set-up: concentration or dose not given beside the values
NCI-H23 = test: Growth inhibition of human NCI-H23 cells assessed as cell growth incubated for 48 hrs by sulforhodamine B assay; assay type: functional; set-up: concentration or dose not given beside the values
CAKI-1 = test: Growth inhibition of human Caki1 cells assessed as cell growth incubated for 48 hrs by sulforhodamine B assay; assay type: functional; set-up: concentration or dose not given beside the values
HCT-15 = test: Growth inhibition of human HCT15 cells assessed as cell growth incubated for 48 hrs by sulforhodamine B assay; assay type: functional; set-up: scale not given: the % may be the effect or the level left
M14 = test: Growth inhibition of human M14 cells assessed as cell growth incubated for 48 hrs by sulforhodamine B assay; assay type: functional; set-up: concentration or dose not given beside the values
NCI/ADR-RES = test: Growth inhibition of human NCI/ADR-RES cells assessed as cell growth incubated for 48 hrs by sulforhodamine B assay; assay type: functional; set-up: concentration or dose not given beside the values
UO-31 = test: Growth inhibition of human UO31 cells assessed as cell growth incubated for 48 hrs by sulforhodamine B assay; assay type: functional; set-up: concentration or dose not given beside the values
LOX IMVI = test: Growth inhibition of human LOXIMVI cells assessed as cell growth incubated for 48 hrs by sulforhodamine B assay; assay type: functional; set-up: concentration or dose not given beside the values
COLO 205 = test: Growth inhibition of human COLO205 cells assessed as cell growth incubated for 48 hrs by sulforhodamine B assay; assay type: functional; set-up: concentration or dose not given beside the values
HCT-116 [2] = test: Growth inhibition of human HCT116 cells assessed as cell growth incubated for 48 hrs by sulforhodamine B assay; assay type: functional; set-up: concentration or dose not given beside the values
Malme-3M = test: Growth inhibition of human MALME-3M cells assessed as cell growth incubated for 48 hrs by sulforhodamine B assay; assay type: functional; set-up: scale not given: the % may be the effect or the level left
UACC-62 = test: Growth inhibition of human UACC62 cells assessed as cell growth incubated for 48 hrs by sulforhodamine B assay; assay type: functional; set-up: concentration or dose not given beside the values
NCI-H460 = test: Growth inhibition of human NCI-H460 cells assessed as cell growth incubated for 48 hrs by sulforhodamine B assay; assay type: functional; set-up: concentration or dose not given beside the values

O=c1c2ccc(O)cc2c(=O)c2c1sc1c(=O)c3ccc(O)cc3c(=O)c12
IC50 (HCT-116 [1]): 1600 nM

O=C(O)CCc1ccc2c(=O)c3c(sc4c(=O)c5ccccc5c(=O)c43)c(=O)c2c1
Activity (Dermcidin (Homo sapiens)): Active

O=c1c2cc(O)ccc2c(=O)c2c1sc1c(=O)c3cc(O)ccc3c(=O)c12
IC50 (HCT-116 [1]): 4400 nM

CC(=O)Oc1ccc2c(=O)c3c(sc4c(=O)c5ccc(O)cc5c(=O)c43)c(=O)c2c1
IC50 (HCT-116 [1]): 1800 nM

CC(=O)Oc1ccc2c(=O)c3c(sc4c(=O)c5cc(O)ccc5c(=O)c43)c(=O)c2c1
IC50 (HCT-116 [1]): 1600 nM

O=c1c2ccccc2c(=O)c2c1sc1c(=O)c3cc(Cl)ccc3c(=O)c12
IC50 (HCT-116 [1]): 150 nM

NCC1CN(C(=O)CCc2ccc3c(=O)c4sc5c(=O)c6ccccc6c(=O)c5c4c(=O)c3c2)C1.O=C(O)C(F)(F)F
Activity (HT-29): -46.19%
Activity (SF-268): -57.54%
Activity (OVCAR-8): -38.88%
Activity (RXF 393): -77.25%
Activity (TK-10): -89.49%
Activity (OVCAR-3): -68.52%
Activity (NCI-H522): -72.26%
Activity (ACHN): -96.22%
Activity (SF-539): -99.46%
Activity (HOP-92): -32.93%
Activity (OVCAR-4): -71.07%
Activity (RPMI-8226): -39.84%
Activity (MDA-MB-435): -93.07%
Activity (HOP-62): -90.94%
Activity (T47D): -51.1%
Activity (MOLT-4): -36.2%
Activity (MDA-MB-231): -15.99%
Activity (CCRF-CEM): -29.57%
Activity (HL-60(TB)): -46.78%
Activity (HCC 2998): -90.76%
Activity (MDA-MB-468): -83.65%
Activity (BT-549): -96.67%
Activity (Hs-578T): 1.09%
Activity (SR): -25%
Activity (DU-145): -94.41%
Activity (SK-OV-3): -97.49%
Activity (K562): -59.88%
Activity (786-0): -95.07%
Activity (MCF7): -58.78%
Activity (SW-620): -60.32%
Activity (SK-MEL-28): -96.8%
Activity (SNB-19): -98.59%
Activity (SK-MEL-5): -98.07%
Activity (UACC-257): -92.08%
Activity (NCI-H226): -49.62%
Activity (U-251): -92.83%
Activity (A549): -55.33%
Activity (KM12): -76.76%
Activity (PC-3): -79.46%
Activity (SK-MEL-2): -72.32%
Activity (SN12C): -69%
Activity (SF-295): -92.59%
Activity (SNB-75): -95.74%
Activity (OVCAR-5): -85.63%
Activity (NCI-H322M): -97.48%
Activity (A498): -87.3%
Activity (NCI-H23): -50.82%
Activity (CAKI-1): -78.75%
Activity (HCT-15): -61.54%
Activity (M14): -93.82%
Activity (NCI/ADR-RES): -15.35%
Activity (UO-31): -96.98%
Activity (LOX IMVI): -82.6%
Activity (COLO 205): -91.79%
Activity (HCT-116 [2]): -80.84%
Activity (Malme-3M): -93.22%
Activity (UACC-62): -88.01%
Activity (NCI-H460): -52.32%

O=c1c2ccccc2c(=O)c2c1sc1c(=O)c3ccc(O)cc3c(=O)c12
IC50 (HCT-116 [1]): 1200 nM
